Measurements published in patent publication US12448368B2, “Indole compounds as androgen receptor modulators” (NIDO BIOSCIENCES, INC., priority 2020, dated 2025).
pIC50: −log10 of the molar value.

Target: T1, androgen receptor (AR) (Homo sapiens, UniProt P10275, T878A)
T1 construct: LNCaP cells expressing ARR2PB-FireflyLuc and CMV-RenillaLuc; endogenous in cells; host or cells: LNCaP cells carrying ARR2PB-FireflyLuc and CMV-RenillaLuc reporters
T1 sequence (P10275 1-920 T878A): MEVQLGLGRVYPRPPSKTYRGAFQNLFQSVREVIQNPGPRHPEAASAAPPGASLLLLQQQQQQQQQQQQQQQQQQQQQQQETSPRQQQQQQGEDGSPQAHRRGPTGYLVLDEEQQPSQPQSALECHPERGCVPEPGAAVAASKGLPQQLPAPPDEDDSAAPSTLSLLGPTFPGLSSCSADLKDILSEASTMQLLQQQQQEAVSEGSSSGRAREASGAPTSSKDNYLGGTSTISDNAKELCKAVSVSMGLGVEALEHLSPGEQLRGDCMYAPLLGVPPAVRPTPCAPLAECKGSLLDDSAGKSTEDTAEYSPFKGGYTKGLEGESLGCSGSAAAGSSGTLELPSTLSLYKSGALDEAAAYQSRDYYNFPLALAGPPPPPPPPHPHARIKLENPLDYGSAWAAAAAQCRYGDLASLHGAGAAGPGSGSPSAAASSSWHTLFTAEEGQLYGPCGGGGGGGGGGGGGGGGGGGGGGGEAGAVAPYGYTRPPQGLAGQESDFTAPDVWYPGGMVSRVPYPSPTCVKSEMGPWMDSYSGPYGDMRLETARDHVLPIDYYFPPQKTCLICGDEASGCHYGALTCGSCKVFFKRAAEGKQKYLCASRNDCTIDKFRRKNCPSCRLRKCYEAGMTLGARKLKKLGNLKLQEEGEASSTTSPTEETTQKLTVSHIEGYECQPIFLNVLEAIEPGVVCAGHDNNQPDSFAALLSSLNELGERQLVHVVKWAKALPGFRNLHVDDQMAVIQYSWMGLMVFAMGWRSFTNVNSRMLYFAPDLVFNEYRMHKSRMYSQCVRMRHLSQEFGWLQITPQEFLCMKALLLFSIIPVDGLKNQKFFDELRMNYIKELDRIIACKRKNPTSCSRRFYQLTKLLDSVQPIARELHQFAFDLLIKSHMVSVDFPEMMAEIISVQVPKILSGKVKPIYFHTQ
Test: AR reporter assay in LNCaP cells expressing ARR2PB-FireflyLuc and CMV-RenillaLuc, antagonist mode (% remaining activity, IC50)
Format: cell-based
Details: 48 h at 37° C., class symbols A-D, read-out: IC50
Experimental: LNCaP cells expressing ARR2PB-FireflyLuc and CMV-RenillaLuc were treated with indicated concentrations of test compounds, enzalutamide (negative control), or DHT (positive control)+/−0.5 nM DHT for 48 h at 37° C. […] Remaining activity (antagonist mode) was calculated as % Remaining Activity=100×[(Readsample−LCave)/(HCave−LCave)] where HC is cells treated with 0.5 nM DHT only and LC is cells treated with 10 uM enzalutamide+0.5 nM DHT. Activation (agonist mode) was calculated as % Activation=100×[(ReadSample−LCave)/(HCave−LCave)] where HC is cells treated with 1 uM DHT and LC is cells treated with DMSO. Dose response curves and IC50 values were calculated using non-linear regression analysis in XLfit.
The designation “A” indicates an IC50 value of >10 μM, “B” indicates an IC50 value between 1 μM and 10 μM; “C” indicates an IC50 value between 100 nM and 1 μM; and “D” indicates an IC50 value of less than 100 nM.

| SMILES | pIC50 |
| --- | --- |
| CC1(C)c2nc(-c3c[nH]c4c(C#N)cccc34)ccc2C(=O)N1CCCO [Compound 235] | < 5.00 |
| Cc1nc(-c2c[nH]c3c(C#N)cccc23)cnc1OC1CNC(C)(C)C1 (stereo not shown) [Compound 284] | < 5.00 |
| CNC(=O)c1ccc(-c2n[nH]c3cc(F)c(F)cc23)nc1C [Compound 100] | < 5.00 |
| c1ccc2c(-c3ccc4c(n3)CNCC4)n[nH]c2c1 [Compound 20] | < 5.00 |
| Fc1ccc(-c2n[nH]c3cccnc23)nc1 [Compound 112] | < 5.00 |
| COc1nc(-c2c[nH]c3c(C#N)cccc23)ccc1C(N)=O [Compound 316] | < 5.00 |
| CN1CCOc2nc(-c3n[nH]c4ccccc34)ccc21 [Compound 10] | < 5.00 |
| Cc1nc(-c2c[nH]c3c(C#N)cccc23)cnc1OC1CCNC1(C)C (stereo not shown) [Compound 283] | < 5.00 |
| Cc1nc(-c2c[nH]c3c(C#N)cccc23)cnc1O[C@H]1CN[C@@H](C)C1 [Compound 328] | < 5.00 |
| Cc1nc(-c2c[nH]c3c(C#N)cccc23)cnc1O[C@H]1CN[C@H](C)C1 [Compound 329] | < 5.00 |
| CC1NC(=O)c2ccc(-n3ncc4cc(F)c(F)cc43)nc21 (stereo not shown) [Compound 107] | < 5.00 |
| N#Cc1cccc2c(-c3cnc(OC4CCNC4)c(OC(F)F)n3)c[nH]c12 (stereo not shown) [Compound 244] | < 5.00 |
| Cc1nc(-c2c[nH]c3c(C#N)cccc23)cnc1OCC(C)(C)N [Compound 286] | 5.00 to 6.00 |
| CN1CCOc2ccc(-c3n[nH]c4cc(F)c(F)cc34)nc21 [Compound 75] | 5.00 to 6.00 |
| Cn1ccc2nc(-c3n[nH]c4ccccc34)ccc2c1=O [Compound 18] | 5.00 to 6.00 |
| CC(=O)N1CCC(Oc2ncc(-c3c[nH]c4c(C)cccc34)nc2C)C1 (stereo not shown) [Compound 313] | 5.00 to 6.00 |
| Cc1cccc(-c2c[nH]c3ccc(C#N)cc23)n1 [Compound 162] | 5.00 to 6.00 |

| SMILES | pIC50 |
| --- | --- |
| Cc1nc(-c2c[nH]c3c(C#N)cccc23)cnc1O[C@@H]1CN[C@H](C)C1 [Compound 331] | < 5.00 |
| CCOc1nc(-c2c[nH]c3c(C#N)cccc23)cnc1NC1CCNC1 (stereo not shown) [Compound 251] | 5.00 to 6.00 |
| Cc1nc(-c2c[nH]c3cccnc23)ccc1N [Compound 134] | < 5.00 |
| CC(C)(O)COc1ncc(-c2c[nH]c3c(C#N)cccc23)nc1C1CC1 [Compound 342] | < 5.00 |
| CC1(C)NC(=O)c2ccc(-c3n[nH]c4cc(F)c(F)cc34)cc21 [Compound 110] | < 5.00 |
| Fc1cc2[nH]nc(-c3ccnc4cccnc34)c2cc1F [Compound 27] | 5.00 to 6.00 |
| Fc1cc2[nH]nc(-c3cnc4c(n3)CCCN4)c2cc1F [Compound 58] | < 5.00 |
| Cc1nc(-c2c[nH]c3c(C#N)cccc23)cnc1O[C@@H](C)[C@H](C)O [Compound 334] | 5.00 to 6.00 |
| CC(=O)N1CCC(Oc2ncc(-c3n[nH]c4c(C#N)cccc34)nc2C)C1 (stereo not shown) [Compound 312] | 5.00 to 6.00 |
| Fc1cc2[nH]nc(-c3ccc4c(n3)NCCO4)c2cc1F [Compound 74] | 5.00 to 6.00 |
| CC(C)Oc1nc(-c2n[nH]c3cc(F)c(F)cc23)ccc1N [Compound 89] | 5.00 to 6.00 |
| CC(=O)c1cccc2c(-c3ccc(N)c(C)n3)c[nH]c12 [Compound 160] | < 5.00 |
| CN1C(=O)c2ccc(-c3c[nH]c4c(C#N)cccc34)nc2C1(C)CO (stereo not shown) [Compound 173] | 5.00 to 6.00 |
| CCNc1ccc(-c2n[nH]c3cc(F)c(F)cc23)nc1C [Compound 95] | 5.00 to 6.00 |
| Cc1nc(-c2c[nH]c3c(C#N)cccc23)cnc1OC1CNC1 [Compound 239] | 5.00 to 6.00 |
| CCOc1nc(-c2n[nH]c3cc(F)c(F)cc23)ccc1N [Compound 90] | 5.00 to 6.00 |
| c1ccc2nc(-c3n[nH]c4ccc(N5CCOCC5)cc34)ccc2c1 [Compound 1] | 5.00 to 6.00 |

Next, values leading:

| pIC50 | SMILES |
| --- | --- |
| 6.00 to 7.00 | Cc1nc(-c2c[nH]c3c(Cl)cccc23)cnc1O[C@@H]1CNC[C@H]1F [Compound 273] |
| 6.00 to 7.00 | CC(=O)N1CCC(Oc2ncc(-c3n[nH]c4c(Cl)cccc34)nc2C)C1 (stereo not shown) [Compound 276] |
| 6.00 to 7.00 | Cc1nc(-c2c[nH]c3c(C#N)cccc23)cnc1OC(C)CN (stereo not shown) [Compound 287] |
| 5.00 to 6.00 | Cc1nc(-c2c[nH]c3c(F)cccc23)cnc1OCC(C)(C)O [Compound 332] |
| 5.00 to 6.00 | CC(C)c1nc(-c2n[nH]c3cc(F)c(F)cc23)ccc1N [Compound 88] |
| 5.00 to 6.00 | Cc1nc(-c2c[nH]c3c(C#N)cccc23)cnc1N(C)CC(C)(C)O [Compound 326] |
| 5.00 to 6.00 | N#Cc1cccc2c(-c3ccc(OC4CCNC4)c(C(F)(F)F)n3)c[nH]c12 (stereo not shown) [Compound 252] |
| 5.00 to 6.00 | Cc1nc(-c2coc3c(Cl)cccc23)cnc1N [Compound 248] |
| 6.00 to 7.00 | COc1nc(-c2c[nH]c3c(C#N)cccc23)cnc1NC1CCNC1 (stereo not shown) [Compound 250] |
| 5.00 to 6.00 | Fc1ccc(-c2n[nH]c3ncccc23)nc1 [Compound 116] |
| 5.00 to 6.00 | CCN(CC(C)(C)O)c1ncc(-c2c[nH]c3c(C#N)cccc23)nc1C [Compound 327] |
| 5.00 to 6.00 | CN1Cc2nc(-c3n[nH]c4cc(F)c(F)cc34)ccc2C1=O [Compound 42] |
| > 7.00 | COc1ccc(-c2c[nH]c3c(C#N)cccc23)nc1C [Compound 166] |
| > 7.00 | Cc1nc(-c2n[nH]c3cc(F)c(F)cc23)ccc1C#N [Compound 103] |
| 5.00 to 6.00 | Cc1nc(-c2c[nH]c3c(C)cccc23)ccc1N [Compound 140] |
| 6.00 to 7.00 | CC1CCNc2ccc(-c3n[nH]c4cc(F)c(F)cc34)nc21 (single isomer, unassigned) [Compound 47] |
| > 7.00 | Fc1cc2[nH]nc(-c3ccc4ncccc4n3)c2cc1F [Compound 26] |
| > 7.00 | Fc1cc2[nH]nc(-c3ccc4c(-c5nnco5)cccc4n3)c2cc1F [Compound 35] |
| 6.00 to 7.00 | Fc1cc2[nH]nc(-c3ccc4c(n3)CCCN4)c2cc1F [Compound 11] |
| 5.00 to 6.00 | Cc1nc(-c2c[nH]c3ncccc23)ccc1N [Compound 135] |

| pIC50 | SMILES |
| --- | --- |
| 5.00 to 6.00 | Fc1cc2[nH]nc(-c3cc4c(cn3)NCCC4)c2cc1F [Compound 56] |
| > 7.00 | Cc1nc(-c2c[nH]c3c(C#N)c(F)ccc23)ccc1N [Compound 210] |
| 6.00 to 7.00 | Cc1nc(-c2c[nH]c3c(Cl)cccc23)ccc1N [Compound 207] |
| 6.00 to 7.00 | Cc1nc(-c2c[nH]c3c(C#N)cccc23)ccc1NCC(C)(C)O [Compound 219] |
| 6.00 to 7.00 | COCC(=O)N1CCC(Oc2ncc(-c3c[nH]c4c(C#N)cccc34)nc2C)C1 (stereo not shown) [Compound 318] |
| 6.00 to 7.00 | Cc1nc(-c2c[nH]c3c(C#N)cccc23)cnc1OCC1(C)COC1 [Compound 325] |
| 6.00 to 7.00 | N#Cc1cc(F)cc2c(-c3ccc4ccc(F)cc4n3)c[nH]c12 [Compound 204] |
| 6.00 to 7.00 | CC(=O)N1CC(Oc2ncc(-c3c[nH]c4c(C#N)cccc34)nc2C)C1 [Compound 240] |
| 6.00 to 7.00 | CN1C(=O)c2ccc(-c3c[nH]c4c(Cl)cccc34)nc2C1(C)C [Compound 217] |
| 6.00 to 7.00 | COC(C)CNc1ccc(-c2c[nH]c3c(C#N)cccc23)nc1C (stereo not shown) [Compound 195] |
| 6.00 to 7.00 | Cc1cc2[nH]nc(-c3ccc4c(n3)CCCN4)c2cc1F [Compound 44] |
| 6.00 to 7.00 | Cc1nc(-c2c[nH]c3c(C#N)cccc23)ccc1NC1CCOC1 (stereo not shown) [Compound 164] |
| 6.00 to 7.00 | Cc1nc(-c2c[nH]c3c(C#N)cc(F)cc23)ccc1N [Compound 130] |
| 6.00 to 7.00 | COc1ccc(-c2n[nH]c3cc(F)c(F)cc23)nc1C [Compound 99] |
| 6.00 to 7.00 | Cc1nc(-c2c[nH]c3c(C#N)cccc23)ccc1N [Compound 125] |
| > 7.00 | COc1nc(-c2c[nH]c3c(C#N)cccc23)cnc1N[C@@H]1CCN(C(C)=O)C1 [Compound 289] |
| 6.00 to 7.00 | Nc1ccc(-c2n[nH]c3cc(F)c(F)cc23)nc1C(F)(F)F [Compound 92] |
| 6.00 to 7.00 | Cc1nc(-c2c[nH]c3c(C#N)c(Cl)ccc23)ccc1N [Compound 151] |
| 6.00 to 7.00 | Cc1nc(-c2coc3cc(F)ccc23)cnc1N [Compound 309] |
